# Paper PMC5761471 (Journal of Pharmaceutical Analysis, 2014)
# Key:
# [1] = stated, not tested in this paper; cited from earlier work
# [2] = Bioequivalence study, oral 400 mg raltegravir tablets; assay type: in vivo, human; settings: healthy Indian subjects
# [3] = Stability of standard stock solutions; assay type: physicochemical; settings: stock solution in methanol, 25 °C
# [4] = cited from earlier work
# [5] = Stability of raltegravir in spiked human plasma and processed extracts; assay type: in vitro ADME; settings: n=6
# [6] = Bench-top, room temperature (25 °C), 8 h, nominal 6.0 ng/mL
# [7] = Bench-top, room temperature (25 °C), 8 h, nominal 5000 ng/mL
# [8] = Dry extract in deep freezer at −20 °C for 65 h, nominal 6.0 ng/mL
# [9] = Dry extract in deep freezer at −20 °C for 65 h, nominal 5000 ng/mL
# [10] = Freeze-thaw after 5th cycle at −20 °C, nominal 6.0 ng/mL
# [11] = Freeze-thaw after 5th cycle at −20 °C, nominal 5000 ng/mL
# [12] = Freeze-thaw after 5th cycle at −70 °C, nominal 6.0 ng/mL
# [13] = Freeze-thaw after 5th cycle at −70 °C, nominal 5000 ng/mL
# [14] = Long-term at −20 °C for 42 days, nominal 6.0 ng/mL
# [15] = Long-term at −20 °C for 42 days, nominal 5000 ng/mL
# [16] = Long-term at −70 °C for 42 days, nominal 6.0 ng/mL
# [17] = Long-term at −70 °C for 42 days, nominal 5000 ng/mL
# [18] = Wet extract (autosampler) at 4 °C for 65 h, nominal 6.0 ng/mL
# [19] = Wet extract (autosampler) at 4 °C for 65 h, nominal 5000 ng/mL
# [20] = Wet extract at 25 °C for 4 h, nominal 6.0 ng/mL
# [21] = Wet extract at 25 °C for 4 h, nominal 5000 ng/mL
compound,measurement,setting,value
"Cc1nnc(C(=O)NC(C)(C)c2nc(C(=O)NCc3ccc(F)cc3)c(O[C@@H]3O[C@H](C(=O)O)[C@@H](O)[C@H](O)[C@H]3O)c(=O)n2C)o1 [RAL-Glu, raltegravir glucuronide]",pharmacological activity,[1],pharmacologically inactive
same,presence of circulating metabolite in plasma of subject samples,[2]; up to 4 h after oral administration of the drug,complete absence
Cc1nnc(C(=O)NC(C)(C)c2nc(C(=O)NCc3ccc(F)cc3)c(O)c(=O)n2C)o1 [raltegravir],short-term stability of stock solution (stable up to),[3],up to 8 h
same,increase of area under the plasma-time curve (AUC) with a high fat meal,[4],about 19%
same,time required to reach peak plasma concentration,"[2]; single 400 mg oral dose, fasting",~ 2 h
same,Change,[5]; [6],7.17%
same,Mean stability sample ±SD,[5]; [6],6.43 ± 0.15 ng/mL
same,Change,[5]; [7],−5.81%
same,Mean stability sample ±SD,[5]; [7],4709.67 ± 72.69 ng/mL
same,Change,[5]; [8],3.83%
same,Mean stability sample ±SD,[5]; [8],6.23 ± 0.25 ng/mL
same,Change,[5]; [9],−2.52%
same,Mean stability sample ±SD,[5]; [9],4874.00 ± 183.04 ng/mL
same,Change,[5]; [10],2.83%
same,Mean stability sample ±SD,[5]; [10],6.17 ± 0.22 ng/mL
same,Change,[5]; [11],−4.54%
same,Mean stability sample ±SD,[5]; [11],4773.50 ± 106.40 ng/mL
same,Change,[5]; [12],2.83%
same,Mean stability sample ±SD,[5]; [12],6.17 ± 0.24 ng/mL
same,Change,[5]; [13],−3.90%
same,Mean stability sample ±SD,[5]; [13],4804.83 ± 218.23 ng/mL
same,Change,[5]; [14],−1.00%
same,Mean stability sample ±SD,[5]; [14],5.94 ± 0.26 ng/mL
same,Change,[5]; [15],−3.12%
same,Mean stability sample ±SD,[5]; [15],4844.00 ± 247.40 ng/mL
same,Change,[5]; [16],3.33%
same,Mean stability sample ±SD,[5]; [16],6.20 ± 0.23 ng/mL
same,Change,[5]; [17],−2.77%
same,Mean stability sample ±SD,[5]; [17],4861.50 ± 315.59 ng/mL
same,Change,[5]; [18],4.00%
same,Mean stability sample ±SD,[5]; [18],6.24 ± 0.28 ng/mL
same,Change,[5]; [19],−3.24%
same,Mean stability sample ±SD,[5]; [19],4838.17 ± 209.68 ng/mL
same,Change,[5]; [20],3.83%
same,Mean stability sample ±SD,[5]; [20],6.23 ± 0.25 ng/mL
same,Change,[5]; [21],−0.81%
same,Mean stability sample ±SD,[5]; [21],4959.33 ± 287.84 ng/mL
